Laboratory results from patent publication US12484583B2 (priority 2019, dated 2025).

Key:
Fusarium culmorum = settings: in vivo
Rhizoctonia = settings: in vivo

Compound | fungicidal activity of the insecticide by itself (Fusarium culmorum) | stimulation of the fungicidal action of natamycin (Fusarium culmorum) | fungicidal activity of the insecticide by itself (Rhizoctonia) | stimulation of the fungicidal action of natamycin (Rhizoctonia)
O=[N+]([O-])NC1=NCCN1Cc1ccc(Cl)nc1 [Imidacloprid, N-[1-[(6-chloropyridin-3-yl)methyl]-4,5-dihydroimidazol-2-yl]nitramide] | does not have fungicidal activity by itself | stimulates the fungicidal action of natamycin on seeds of different plants | – | –
abamectin | – | – | does not have fungicidal by itself | stimulates the fungicidal action of natamycin against different fungal pathogens on seeds
